Measurements: paper PMC4718634, “Murine GPRC6A Mediates Cellular Responses to L-Amino Acids, but Not Osteocalcin Variants” (PLoS ONE, 2016)
“Also recorded” adds a separate entry of the source.

Legend:
[1] = test system: INS-1(832) cells; assay: Label-free cell impedance, INS-1(832) cells; format: cell-based, rat; settings: S1 Table
How it was run: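 INS-1(832) cells seeded at 2 x 10^4/well, cultured 48 h in 11.1 mM glucose RPMI, then switched to EBSS containing 2.8 mM glucose for 2 h. Compound added in the same buffer; impedance captured and analysed as for HEK293 cells.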

[2] = test system: un-induced FlpIn-TREx-HEK293-mGPRC6A cells; assay: Label-free cell impedance, un-induced FlpIn-TREx-HEK293-mGPRC6A cells; format: cell-based; settings: Fig 4
Experimental: 2.5 x 10^7 FlpIn-TREx-HEK293-mGPRC6A cells were seeded in a T175 flask and incubated overnight at 37°C in 5% CO2. Cells were then transfected with 35 μg of plasmid DNA (GαqG66D) with Lipofectamine LTX according to manufacturer's instructions, then incubated for 24h at 37°C in 5% CO2. Prior to the experiment, a background reading for each E-plate 96 (Bio-Rad, CA, USA) was measured after addition of 100 μl DMEM + 10% FBS per well. Cells were recovered using Versene and seeded at a 10^5 cells/well density in 200 μl DMEM + 10% FBS (containing 1 μg/ml tetracycline where indicated). Cells were washed 2 x 2 h in HBSS buffer (pH 7.2) containing 20 mM HEPES, 1 mM CaCl2 and 0.1% BSA (w/v) in a total volume of 180 μl. Test compounds (20 μl at 10x final concentration) were added to the plate and cell impedance was monitored for 3 h. Cell index was normalised to the buffer response (minus the baseline response at zero time point).

[3] = molecular target: T1, mGPRC6A (mouse GPRC6A) (Mus musculus, UniProt Q8K4Z6); assay: Ca^2+i mobilisation, FlpIn-TREx-HEK293-mGPRC6A cells; format: cell-based
T1 sequence (Q8K4Z6 21-928): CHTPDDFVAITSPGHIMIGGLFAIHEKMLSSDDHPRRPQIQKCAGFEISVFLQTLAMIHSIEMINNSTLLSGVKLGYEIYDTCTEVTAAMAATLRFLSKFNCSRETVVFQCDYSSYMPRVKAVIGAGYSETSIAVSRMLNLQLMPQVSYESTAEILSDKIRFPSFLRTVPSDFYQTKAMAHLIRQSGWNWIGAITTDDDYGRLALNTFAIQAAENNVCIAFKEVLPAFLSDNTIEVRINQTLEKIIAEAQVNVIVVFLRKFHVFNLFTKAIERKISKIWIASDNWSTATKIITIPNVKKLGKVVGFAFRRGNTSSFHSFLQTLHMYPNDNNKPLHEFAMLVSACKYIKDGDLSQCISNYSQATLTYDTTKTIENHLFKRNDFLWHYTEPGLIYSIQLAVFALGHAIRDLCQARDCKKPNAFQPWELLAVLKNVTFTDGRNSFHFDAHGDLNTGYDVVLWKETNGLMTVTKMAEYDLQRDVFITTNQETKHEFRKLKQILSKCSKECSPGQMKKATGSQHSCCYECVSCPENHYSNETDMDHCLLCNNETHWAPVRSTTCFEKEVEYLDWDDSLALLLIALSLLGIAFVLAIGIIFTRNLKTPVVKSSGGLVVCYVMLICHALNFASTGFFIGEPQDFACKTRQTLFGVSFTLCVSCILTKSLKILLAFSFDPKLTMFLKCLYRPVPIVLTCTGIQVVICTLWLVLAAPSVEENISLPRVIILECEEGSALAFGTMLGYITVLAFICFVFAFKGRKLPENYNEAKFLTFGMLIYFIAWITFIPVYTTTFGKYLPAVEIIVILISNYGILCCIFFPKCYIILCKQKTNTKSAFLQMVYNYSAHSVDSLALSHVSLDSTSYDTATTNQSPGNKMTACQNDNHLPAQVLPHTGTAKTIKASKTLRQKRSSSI
How it was run: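 Tetracycline-induced FlpIn-TREx-HEK293 cells expressing mouse GPRC6A, transiently transfected with Gαq or GαqG66D and serum-starved overnight, were loaded with 1 μM Fluo-4-AM 1 h at 37 °C in pH 7.4 buffer with probenecid.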

Row | Molecule | xCELLigence response (summary) [1] | cell impedance (cell index) response [2] | potency at murine GPRC6A (calcium and inositol phosphate, words) ([3]; calcium mobilisation and inositol phosphate accumulation, Discussion) | rank order of potency, Ca^2+ mobilisation ([3]; co-expressing GαqG66D, Fig 1D) | EC50 ([3]; co-expressing GαqG66D, Fluo-4, normalised to 100 μM ATP, pEC50 ± SEM, printed in picture Fig 1D, read-out: pEC50, Ca^2+ mobilisation (converted)) [µM]
1 | OCN: osteoblast-derived peptide, osteocalcin; variant not specified at the place (YLYQWLGAPVPYPDPLEPRREVCELNPDCDELADHIGFQEAYRRFYGPV; UniProt P02818 52-100, looked up) | xCELLigence – response to OCN | – | – | – | –
2 | NCCC[C@H](N)C(=O)O [L-ornithine] | – | only mGPRC6A-expressing cells responded to L-ornithine; also recorded: increases cellular impedance only in tetracycline-induced cells | most potent agonists | L-ornithine > L-arginine = L-lysine | 3.16
